Tested on: male ICR Swiss mice
Test: Example VI: subcutaneous PO4-ASARM-peptide or etidronate, calcein fluorescence and Sanderson osteoid staining
Type: in vivo
Details: four layers visible in vehicle group
Protocol: Subcutaneous administration of PO4-ASARM-peptide, etidronate (EHDP), and calcein. Three separate groups of male ICR Swiss mice (4-5 weeks) were subcutaneously injected once a day (9:00AM), for 12 days except for days 6 and 7 with 50 μL solutions of either (1) Eitidronate (EHDP) (10 mg/kg/day); (2) PO4-ASARM-peptide (2 mg/kg/day); or (3) vehicle consisting of 5 mM HEPES pH 7.4/150 mM NaCL/0.1% BSA. The synthetic PO4-ASARM-peptide was dissolved in vehicle (1.0 mg/mL). Etidronate was first dissolved in 150 mM NaCl and then buffered to pH 7.5 with 1M NaOH to give a 5 mg/mL solution. The 10 mg/kg/day doses of etidronate have previously been reported to inhibit mineralization in rats and were used as positive controls (Trechsel, et al., Am J Physiol 232(3):E298-305, 1977; Bonjour, et al., Am J Physiol 229(2):402-8, 1975). All three groups were subcutaneously injected with calcein (20 mg/kg/day) on days 3, 5, […]. The degree of calcein fluorescence and/or fluorescence-quenching is an indicator of mineralization status (see next section). The calcein injections when given were administered 1 h after the daily injections of PO4-ASARM-peptide, EHDP or vehicle. Animals were then terminated humanely and calvariae plus femurs/tibia were fixed in 70% ethanol (non-decalcified). After fluorescence imaging (see FIG. 35) calvariae were processed in plastic and stained with Sanderson's stain (see below). Five animals per group were used for statistical analysis of fluorescence quenching and histological Sanderson staining.
Calcein fluorescence in mice calvariae, hind-limbs & fluor-imager analysis of mineralization. A Bio-Rad (Hercules, Calif.) FluorImager^max fluorescent imager was used to simultaneously image all the samples from each of the 3 groups (15 animals; five animals per group). This consisted of 10 tibia/femurs and 5 calvariae per group. Samples were placed on top of the FluorImager plate contained within a light-tight box. Ultra-violet light was used to generate calcein-mediated epi-fluorescence and the fluorescent-image was captured on a −40° C., peltier-cooled, 1,340×1040 pixel CCD resolution, CCD digital-camera. Quantitation of fluorescence was carried out using Quantity-1 (Bio-Rad, Hercules, Calif.) fluorescence-software. Pixel saturation was prevented by internal software calibration and exposure adjustment. All fluorescence readings were thus accurately quantitative and non-saturating. Photo-micrographic UV fluorescent analysis of calvarial cross sections embedded in plastic and mounted as slides (<100 micrometer sections) was also undertaken and a description of the fixation and processing is given in the next section.
Sanderson-staining and fluorescence detection of calvarial osteoid & mineralized bone. Staining of non-decalcified calvarial sections was performed using the method described by Sanderson and Bachus (Staining technique to differentiate mineralized and demineralized bone in ground sections, J Histotechnol 20(2): 119-122, 1997). This technique provides differential staining between unmineralized osteoid and mineralized bone. Prior to staining, calvariae were dissected and attached tissue removed. Calvariae were then placed in 70% ethanol for further fixation as described by Sanderson and Bachus (supra). After fixing and processing undecalcified calvariae were embedded in plastic (LR-white acrylic resin (London Resin Co., Reading, England)) as previously described (Garrett, et al., Selective inhibitors of the osteoblast proteasome stimulate bone formation in vivo and in vitro, J Clin Invest 111(11):1771-1782, 2003). Plastic embedded sections were ground to <100 micrometers using a specialized grinding-pestle as described by Donath and Breuner (A method for the study of undecalcified bones and teeth with attached soft tissues. The Sage-Schliff (sawing and grinding) technique, J Oral Pathol 11(4):318-26, 1982). […]

H-CFSSRRRDDSSESSDSGSSSESDGD-OH [ASARM-peptide]
lamellar calcein fluorescent layers in calvarial cross-sections: complete absence
